Results on twelve compounds are retold here after US7598258B2, “Quinoline derivatives and quinazoline derivatives inhibiting autophosphorylation of macrophage colony stimulating factor receptor” (Kirin Beer Kabushiki Kaisha, priority 2002, dated 2009).

The target of the assay is T1, mouse c-fms (Mus musculus, UniProt P09581).
T1 construct: Macrophage-like cell line BAC-1.2F5 which expresses c-fms as a M-CSF receptor on cell membranes; endogenous in cells; host or cells: BAC-1.2F5 mouse macrophage-like cell line
T1 sequence (P09581 20-977): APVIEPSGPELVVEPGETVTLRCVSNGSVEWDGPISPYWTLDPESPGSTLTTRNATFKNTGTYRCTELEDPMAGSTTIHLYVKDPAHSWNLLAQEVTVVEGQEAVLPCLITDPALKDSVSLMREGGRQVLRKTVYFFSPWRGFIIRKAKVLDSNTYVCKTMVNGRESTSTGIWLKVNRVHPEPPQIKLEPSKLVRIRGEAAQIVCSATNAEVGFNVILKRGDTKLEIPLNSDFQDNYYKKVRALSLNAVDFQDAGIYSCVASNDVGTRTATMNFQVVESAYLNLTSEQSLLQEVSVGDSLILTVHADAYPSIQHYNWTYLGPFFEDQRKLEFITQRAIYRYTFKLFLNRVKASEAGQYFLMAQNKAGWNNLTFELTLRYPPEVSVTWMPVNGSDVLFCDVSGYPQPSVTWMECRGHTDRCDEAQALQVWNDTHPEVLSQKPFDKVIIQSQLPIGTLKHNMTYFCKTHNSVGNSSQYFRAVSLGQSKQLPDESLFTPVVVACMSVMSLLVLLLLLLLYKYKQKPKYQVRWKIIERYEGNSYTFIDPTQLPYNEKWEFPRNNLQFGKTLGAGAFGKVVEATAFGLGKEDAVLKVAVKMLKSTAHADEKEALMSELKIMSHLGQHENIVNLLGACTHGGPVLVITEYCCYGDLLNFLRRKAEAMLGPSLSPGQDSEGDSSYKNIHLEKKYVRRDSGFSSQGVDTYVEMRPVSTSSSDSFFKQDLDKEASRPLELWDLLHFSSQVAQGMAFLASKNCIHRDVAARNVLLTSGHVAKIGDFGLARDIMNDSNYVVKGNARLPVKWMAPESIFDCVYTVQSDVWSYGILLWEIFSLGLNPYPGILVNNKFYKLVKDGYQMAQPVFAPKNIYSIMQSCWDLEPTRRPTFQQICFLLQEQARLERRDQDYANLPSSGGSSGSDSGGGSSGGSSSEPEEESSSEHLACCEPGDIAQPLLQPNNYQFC
Briefly: Inhibition of c-fms autophosphorylation in macrophage-like cell line BAC-1.2F5 by M-CSF stimulation (ELISA). The format is cell-based. Conditions: BAC-1.2F5 cells, human recombinant M-CSF 50 ng/ml, read-out: c-fms autophosphorylation 50% inhibitory concentration (IC50). The method in brief: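 BAC-1.2F5 cells serum-starved (0.1% FCS) 12 h, preincubated with compound 1 h at 37° C, then stimulated 6 min with 50 ng/ml human recombinant M-CSF. Lysates captured on anti-phosphotyrosine plates, detected with anti-c-fms antiserum and peroxidase read-out at 450 nm. IC50 from inhibition normalised between ±M-CSF controls.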
A general note: In an ELISA, binding on a coated surface is turned into a signal by an enzyme label.

SMILES strings stand for the structures.

Regarding `COc1cc2nccc(Oc3ccc(NC(=O)N[C@H](C)c4ccc(C)cc4)cc3)c2cc1OC` [Example 42, N-{4-[(6,7-Dimethoxy-4-quinolyl)oxy]phenyl}-N′-[(1R)-1-(4-methylphenyl)ethyl]urea], the IC50 was 38.5 nM.
Then `COc1cc2nccc(Oc3ccc(NC(=O)N[C@H](C)c4cccc(Br)c4)cc3)c2cc1OC` [Example 45, N-[(1R)-1-(3-Bromophenyl)ethyl]-N′-{4-[(6,7-dimethoxy-4-quinolyl)oxy]phenyl}urea], with 22.2 nM; and `COc1cc2nccc(Oc3ccc(NC(=O)N[C@@H](C)c4ccc(Cl)cc4)cc3)c2cc1OC` [Example 47, N-[(1S)-1-(4-Chlorophenyl)ethyl]-N′-{4-[(6,7-dimethoxy-4-quinolyl)oxy]phenyl}urea], with 3.8 nM; and `COc1cc2nccc(Oc3ccc(NC(=O)N[C@@H](C)c4ccc(C)cc4)cc3)c2cc1OC` [Example 41, N-{4-[(6,7-Dimethoxy-4-quinolyl)oxy]phenyl}-N′-[(1S)-1-(4-methylphenyl)ethyl]urea], with 2.8 nM.
The result for `COc1cccc([C@@H](C)NC(=O)Nc2ccc(Oc3ccnc4cc(OC)c(OC)cc34)cc2)c1` [Example 50, N-{4-[(6,7-Dimethoxy-4-quinolyl)oxy]phenyl}-N′-[(1R)-1-(3-methoxyphenyl)ethyl]urea] reads 7.2 nM; that for `COc1cc2nccc(Oc3ccc(NC(=O)N[C@@H](C)c4cccc(Br)c4)cc3)c2cc1OC` [Example 46, N-[(1S)-1-(3-Bromophenyl)ethyl]-N′-{4-[(6,7-dimethoxy-4-quinolyl)oxy]phenyl}urea], 7.3 nM.
Then `COc1cc2nccc(Oc3ccc(NC(=O)N[C@H](C)c4ccc(F)cc4)cc3)c2cc1OC` [Example 3, N-{4-[(6,7-Dimethoxy-4-quinolyl)oxy]phenyl}-N′-[(1R)-1-(4-fluorophenyl)ethyl]urea], with 2.4 nM; and `COc1cccc([C@H](C)NC(=O)Nc2ccc(Oc3ccnc4cc(OC)c(OC)cc34)cc2)c1` [Example 49, N-{4-[(6,7-Dimethoxy-4-quinolyl)oxy]phenyl}-N′-[(1S)-1-(3-methoxyphenyl)ethyl]urea], with 3.2 nM; and `COc1cc2nccc(Oc3ccc(NC(=O)N[C@@H](C)c4ccc(F)cc4)cc3)c2cc1OC` [Example 2, N-{4-[(6,7-Dimethoxy-4-quinolyl)oxy]phenyl}-N′-[(1S)-1-(4-fluorophenyl)ethyl]urea], with 2.2 nM.
For the compound `COc1cc2nccc(Oc3ccc(NC(=O)N[C@H](C)c4ccc([N+](=O)[O-])cc4)cc3)c2cc1OC` [Example 36, N-{4-[(6,7-Dimethoxy-4-quinolyl)oxy]phenyl}-N′-[(1R)-1-(4-nitrophenyl)ethyl]urea], the IC50 came to 31.1 nM.
Then `COc1cc2nccc(Oc3ccc(NC(=O)N[C@@H](C)c4ccc([N+](=O)[O-])cc4)cc3)c2cc1OC` [Example 35, N-{4-[(6,7-Dimethoxy-4-quinolyl)oxy]phenyl}-N′-[(1S)-1-(4-nitrophenyl)ethyl]urea], with 12.1 nM; and `COc1cc2nccc(Oc3ccc(NC(=O)N[C@H](C)c4ccc(Cl)cc4)cc3)c2cc1OC` [Example 48, N-[(1R)-1-(4-Chlorophenyl)ethyl]-N′-{4-[(6,7-dimethoxy-4-quinolyl)oxy]phenyl}urea], with 40 nM.
